Among the data in publication PMC8984176, “Tuftsin: A Natural Molecule Against SARS-CoV-2 Infection” (Frontiers in Molecular Biosciences, 2022) are toxicity and Kd values, retold here.

For series [1] the following is noted: in vitro and in vivo; ref Amoscato et al., 1983; Fridkin and Najjar, 1989; Siemion and Kluczyk, 1999; cited from earlier work. An excerpt: Along with ACE2, neuropilin 1 (NRP1) is another important host factor for SARS-CoV-2 infection ([Daly et al., 2020]). It has been reported that NRP1 facilitates the entry of SARS-CoV-2 into cells in the presence of ACE2 ([Cantuti-Castelvetri et al., 2020]). […] Tuftsin, a natural phagocytosis-stimulating peptide, was found by [Najjar and Nishioka (1970)]. Tuftsin is released from the Fc fragment of IgG by enzyme cleavage of an endocarboxy-peptidase in the spleen and a leukokin ...

The target of series [2] is recombinant human NRP1 (Homo sapiens, UniProt O14786). Description: SPR binding to immobilized NRP1. The note with it: SPR Biacore T200, CM5 chip, amine coupling, 25°C, 30 µl/min, 1×PBS, 0.05% Tween 20, 5% dimethyl sulfoxide, pH 7.4; steady state affinity model; read-out: K D value. On the procedure: (§1) Each target was immobilized onto flow cells in a CM5 sensor chip (GE Healthcare) via the amine-coupling method. Briefly, ACE2 and NRP1 were diluted in 10 mM pH 4.5 acetate to 20 μg/ml. Then, the protein solutions were injected individually on the carboxyl-modified sensor surface to form amine bonds. Both ACE2 and NRP1 immobilized levels were approximately 10,000 RU. Binding analyses were carried out at 25°C and a flow rate of 30 µl/min. Tuftsin diluted in running buffer (1×PBS, 0.05% Tween 20 and 5% dimethyl sulfoxide, pH 7.4) was run over each target at gradient concentrations. An empty flow cell without any immobilized protein was used as a deducted reference. The binding curves were analysed using the steady state affinity model supplied with Biacore Evaluation Software (GE Healthcare).
(§2) The interactions of tuftsin with ACE2 and NRP1 were further evaluated by real-time biomolecular interaction analysis with SPR. The steady state affinity of the binding reaction were determined by injecting different concentrations of tuftsin over recombinant human ACE2 immobilized on one half of the chip surface, and over recombinant human NRP1 immobilized on another half of the chip surface. […] The K D fitting curve of tuftsin with NRP1 is gradually stable when the concentrations of tuftsin increased gradually, conforming to the characteristic of specific binding (Figure 3B).

Series [3] concerns the target T1, recombinant human ACE2 (Homo sapiens, UniProt Q9BYF1).
T1 construct: purchased Novoprotein, Beijing, China
Nature of the series: SPR binding to immobilized ACE2. The settings on record: SPR Biacore T200, CM5 chip, amine coupling, 25°C, 30 µl/min, 1×PBS, 0.05% Tween 20, 5% dimethyl sulfoxide, pH 7.4; steady state affinity model; read-out: equilibrium dissociation constant (K D). As for the experimental part: as §1, §2
A general note: In SPR one partner is held on a chip, and binding of the other changes the refractive index at the surface.

Peptide text beside a SMILES is read from it.

T1 sequence (Q9BYF1 18-805): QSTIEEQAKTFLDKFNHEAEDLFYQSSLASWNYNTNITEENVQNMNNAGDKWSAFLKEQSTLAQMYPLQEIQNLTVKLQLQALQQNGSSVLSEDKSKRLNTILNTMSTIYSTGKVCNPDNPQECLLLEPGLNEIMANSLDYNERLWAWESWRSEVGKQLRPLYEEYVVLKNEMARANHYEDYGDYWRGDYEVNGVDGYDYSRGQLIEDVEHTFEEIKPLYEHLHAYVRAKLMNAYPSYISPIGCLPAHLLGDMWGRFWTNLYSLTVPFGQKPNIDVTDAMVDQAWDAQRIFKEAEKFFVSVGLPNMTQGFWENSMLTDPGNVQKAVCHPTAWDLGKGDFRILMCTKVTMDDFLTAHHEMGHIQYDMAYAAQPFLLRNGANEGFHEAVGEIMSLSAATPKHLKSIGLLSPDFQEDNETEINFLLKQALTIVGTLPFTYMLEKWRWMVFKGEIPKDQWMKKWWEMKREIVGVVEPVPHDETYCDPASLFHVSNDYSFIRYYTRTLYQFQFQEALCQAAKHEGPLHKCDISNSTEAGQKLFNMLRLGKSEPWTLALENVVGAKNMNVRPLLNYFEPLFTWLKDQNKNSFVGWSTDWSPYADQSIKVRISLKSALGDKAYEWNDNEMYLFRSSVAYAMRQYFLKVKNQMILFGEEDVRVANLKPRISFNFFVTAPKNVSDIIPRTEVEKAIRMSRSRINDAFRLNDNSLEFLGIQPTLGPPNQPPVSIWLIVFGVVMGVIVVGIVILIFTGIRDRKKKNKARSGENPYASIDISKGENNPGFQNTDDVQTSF
recombinant human NRP1, sequence (O14786 22-923): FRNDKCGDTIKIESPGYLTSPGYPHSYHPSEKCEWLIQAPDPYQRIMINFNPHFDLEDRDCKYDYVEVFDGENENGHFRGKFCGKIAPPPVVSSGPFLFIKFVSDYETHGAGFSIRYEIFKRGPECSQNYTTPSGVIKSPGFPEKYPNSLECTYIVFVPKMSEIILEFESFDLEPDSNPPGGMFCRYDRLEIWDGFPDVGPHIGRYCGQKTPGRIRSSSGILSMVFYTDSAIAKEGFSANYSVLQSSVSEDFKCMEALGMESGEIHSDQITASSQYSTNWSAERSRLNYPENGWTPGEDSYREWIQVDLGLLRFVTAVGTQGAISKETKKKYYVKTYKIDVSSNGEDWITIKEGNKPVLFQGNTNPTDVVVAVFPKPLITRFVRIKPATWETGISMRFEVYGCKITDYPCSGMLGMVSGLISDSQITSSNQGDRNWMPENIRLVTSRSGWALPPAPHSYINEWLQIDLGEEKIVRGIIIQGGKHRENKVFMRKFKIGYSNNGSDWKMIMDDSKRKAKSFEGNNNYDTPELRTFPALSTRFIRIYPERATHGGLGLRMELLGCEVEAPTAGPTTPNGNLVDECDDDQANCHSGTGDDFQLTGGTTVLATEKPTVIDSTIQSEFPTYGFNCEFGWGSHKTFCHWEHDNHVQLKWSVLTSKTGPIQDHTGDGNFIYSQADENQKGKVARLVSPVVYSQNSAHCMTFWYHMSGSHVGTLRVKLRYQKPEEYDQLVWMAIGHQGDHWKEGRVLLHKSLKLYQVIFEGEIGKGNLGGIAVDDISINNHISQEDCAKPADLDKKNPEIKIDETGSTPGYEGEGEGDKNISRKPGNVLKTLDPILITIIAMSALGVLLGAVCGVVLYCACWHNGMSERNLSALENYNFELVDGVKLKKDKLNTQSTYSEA

Consider `C[C@@H](O)[C@H](N)C(=O)N[C@@H](CCCCN)C(=O)N1CCC[C@H]1C(=O)N[C@@H](CCCNC(=N)N)C(=O)O` [tuftsin, L-Threonyl-L-Lysyl-L-Prolyl-L-Arginine] (H-TKPR-OH), for which the toxicity entry in series [1] is given as “low toxicity”. Also, the figures for the Kd in series [2] and in series [3] were 10.7 µM and 460 µM, respectively.
